The source of these data is patent US4066650A, “Keto-aldehyde-amine addition products and method of making same” (priority 1975, dated 1978).

Data set [1] is described as follows: Acute toxicity (mortality) and body weight change in Sarcoma-180 tumor-bearing mice. The conditions noted are these: mouse, in vivo, ip. As to the method: (§1) The biological effects of methylglyoxal maleimide ("A") and methylglyoxal glutaconic imide ("B") were determined by tests on normal (non-tumorous) and subcutaneous Sarcoma-180 tumor-bearing mice. […] The compounds were administered by intraperitoneal route and the values were calculated by standard methods (Goldin A., in Meth.Can.Res. 4, p. 193, 1968).
(§2) The test solutions were prepared by dissolving either 38.72 mg of methylglyoxal maleimide ("A") or 5278 mg of methylglyoxal glutaconic imide ("B") in 100 ml of physiological saline. The pH of the solution was adjusted to 6.0, sterilized on Millipore filtration and stored in sterile vials at about 10° C. One […] of such solutions contained 0.387 mg of compound "A" or 52.78 mg of compound "B", respectively and when injected into mice of an average weight of 26 grams the dose was equivalent to 14.884 mg/kg of the compound "A" and 2030 mg/kg of the compound "B".
(§3) Random-bred Swiss albino mice (Charles River CD-1 strain, average weight 26±3 g, females) were inocculated with 25 million Sarcoma-180 cells (in about 0.25 ml of ascitic fluid, cell age 7 days) on the right scapular region. The animals were randomized on the 4th day after the inocculation with the cancer cells, placed in separate test groups of 10 mice per group (5 mice/cage) and weighed.
(§4) The compositions were injected at different dose levels, each dose being double the next-lower dose, with three test groups (30 mice) for each dose level. The injection was effected intraperitoneally into normal and tumor-bearing mice, starting on the fourth day after the inocculation with cancer, once daily for ten consecutive days. The volume of the injection at each dose level was brought up to 1.0 ml with saline. A proper number of normal and tumorous mice was treated with saline solution in the same manner, frequency and volume as a control experiment. The body weight change and mortality (acute toxicity) were recorded daily.

Data set [2] has as its system Sarcoma-180 tumor-bearing mice. The description is as above. The conditions noted are these: tumorous mice. As to the method:
as §1, §2, §3, §4

As for `CC(=O)C(O)N1C(=O)C=CC1=O` (stereo not shown) [Methylglyoxal-maleimide, N'-(2-keto-propane-1-ol)-2,5-dioxopyrroline-3-ene], the mortality at 240 h in data set [1] (0.234 mg/kg), in data set [1] (0.468 mg/kg), in data set [1] (0.936 mg/kg), in data set [1] (1.872 mg/kg), in data set [1] (3.744 mg/kg) and in data set [1] (7.488 mg/kg) was 0% in each case. In data set [1] (14.896 mg/kg), the mortality at 240 h amounted to 100%. Further, the Δ body wt entry in data set [2] (0.234 mg/kg i.p. daily for 10 days) is recorded as “+0.96”; in data set [2] (0.468 mg/kg i.p. daily for 10 days), “+0.65”; in data set [2] (0.936 mg/kg i.p. daily for 10 days), “+0.6”; in data set [2] (1.872 mg/kg i.p. daily for 10 days), “+0.4”; in data set [2] (3.744 mg/kg i.p. daily for 10 days) it was “+0.3”; in data set [2] (7.488 mg/kg i.p. daily for 10 days), “+0.1”.

One may read the mortality as the percentage killed.
